From ChEMBL document CHEMBL5331095, “Structure-activity relationship and biological evaluation of xanthine derivatives as PCSK9 inhibitors for the treatment of atherosclerosis” (Eur J Med Chem, 2023)
Active and inactive are the calls of the source.

What was measured:
[1] = system: PCSK9 transcriptional activity; experiment: Therapeutic index, ratio of TC50 for cytotoxicity against human HepG2 cells to IC50 for inhibition of PCSK9 transcriptional activity in human HepG2 cells stably expressing luciferase reporter plasmid containing PCSK9 promoter; format: toxicity, cell-based
Mus musculus [2] = experiment: Antiatherosclerotic activity in high-fat diet fed ApoE knockout C57BL/6 mouse assessed as decrease in serum total cholesterol level at 30 mg/kg, IG for 8 weeks by lipid profiling assay; format: functional, organism-based
Mus musculus [3] = experiment: Antiatherosclerotic activity in high-fat diet fed ApoE knockout C57BL/6 mouse assessed as decrease in high-fat diet induced increase in body weight at 30 mg/kg, IG for 8 weeks; format: functional, organism-based
Mus musculus [4] = experiment: Antiatherosclerotic activity in high-fat diet fed ApoE knockout C57BL/6 mouse assessed as decrease in LDL cholesterol level at 30 mg/kg, IG for 8 weeks by FPLC analysis; format: functional, organism-based
Mus musculus [5] = experiment: Antiatherosclerotic activity in high-fat diet fed ApoE knockout C57BL/6 mouse assessed as reduction in atherosclerotic plaque size in aortae en face root at 30 mg/kg, IG for 8 weeks by Oil Red O staining based imaging analysis; format: functional, organism-based
[6] = target: Proprotein convertase subtilisin/kexin type 9 (Homo sapiens) (UniProt Q8NBP7); experiment: Inhibition of PCSK9 in human HepG2 cells assessed as decrease in PCSK9 protein expression level at 2.5 to 25 uM incubated for 24 hrs by Western blot analysis; format: cell-based; conditions: dose 2.5-25 µM
Sequence of Proprotein convertase subtilisin/kexin type 9 (Homo sapiens) (Q8NBP7 31-152 limits assumed): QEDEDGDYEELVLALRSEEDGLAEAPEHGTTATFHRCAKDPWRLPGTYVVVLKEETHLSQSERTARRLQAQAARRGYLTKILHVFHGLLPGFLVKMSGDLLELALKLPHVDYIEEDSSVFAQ
Sequence of Proprotein convertase subtilisin/kexin type 9 (Homo sapiens) (Q8NBP7 153-692 limits assumed): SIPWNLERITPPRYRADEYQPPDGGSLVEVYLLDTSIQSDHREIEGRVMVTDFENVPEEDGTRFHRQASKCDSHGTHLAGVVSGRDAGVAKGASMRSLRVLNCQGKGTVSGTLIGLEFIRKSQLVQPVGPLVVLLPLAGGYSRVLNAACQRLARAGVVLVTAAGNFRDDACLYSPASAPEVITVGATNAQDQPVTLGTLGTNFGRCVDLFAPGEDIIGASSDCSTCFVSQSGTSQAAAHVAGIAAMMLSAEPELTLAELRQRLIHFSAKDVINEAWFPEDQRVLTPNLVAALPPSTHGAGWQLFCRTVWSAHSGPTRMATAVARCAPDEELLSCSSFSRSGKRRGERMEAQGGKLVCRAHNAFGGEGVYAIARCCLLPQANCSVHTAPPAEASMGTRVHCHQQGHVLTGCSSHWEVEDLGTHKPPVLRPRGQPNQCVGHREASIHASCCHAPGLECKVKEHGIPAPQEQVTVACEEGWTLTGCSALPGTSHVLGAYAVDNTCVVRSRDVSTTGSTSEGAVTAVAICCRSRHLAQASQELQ

[7] = target: Proprotein convertase subtilisin/kexin type 9 (Homo sapiens) (UniProt Q8NBP7); experiment: Inhibition of PCSK9 transcriptional activity in human HepG2 cells transfected with luciferase reporter plasmid containing truncated D3 (-709 to -1 base pairs) human PCSK9 promoter region assessed as decrease in luciferase activity incubated for 24 hrs by Luciferase assay; format: cell-based
[8] = Acute toxicity in C57BL/6 mouse assessed as survival upto 1000 mg/kg, IG and measured every day for 1 week; format: organism-based; conditions: in vivo, po, 168 h, time 1 weeks
[9] = target: Proprotein convertase subtilisin/kexin type 9 (Homo sapiens) (UniProt Q8NBP7); experiment: Inhibition of PCSK9 in human HepG2 cells assessed as increase in LDL-cholesterol cellular uptake by measuring DiI fluorescence at 2.5 to 25 uM incubated for 24 hrs by Dil-LDL staining based flow cytometry analysis; format: cell-based; conditions: dose 2.5-25 µM
[10] = Acute toxicity in C57BL/6 mouse assessed as behavioral change upto 1000 mg/kg, IG and measured every day for 1 week; format: organism-based; conditions: in vivo, po, 168 h, time 1 weeks
[11] = Cytotoxicity against human HepG2 cells assessed as reduction in cell viability by measuring toxic concentration incubated for 24 hrs by MTT assay; format: toxicity, cell-based; conditions: read-out: TC50
[12] = target: Proprotein convertase subtilisin/kexin type 9 (Homo sapiens) (UniProt Q8NBP7); experiment: Inhibition of PCSK9 transcriptional activity in human HepG2 cells transfected with luciferase reporter plasmid containing truncated D7 (-335 to -1 base pairs) human PCSK9 promoter region assessed as decrease in luciferase activity incubated for 24 hrs by Luciferase assay; format: cell-based
Mus musculus [13] = experiment: Antiatherosclerotic activity in high-fat diet fed ApoE knockout C57BL/6 mouse assessed as reduction in atherosclerotic plaque size in aortic root at 30 mg/kg, IG for 8 weeks by Oil Red O staining based imaging analysis; format: functional, organism-based
[14] = target: Proprotein convertase subtilisin/kexin type 9 (Homo sapiens) (UniProt Q8NBP7); experiment: Inhibition of PCSK9 transcriptional activity in human HepG2 cells stably expressing luciferase reporter plasmid containing PCSK9 promoter assessed as decrease in luciferase activity at 10 ug/ml incubated for 24 hrs by Luciferase assay relative to control; format: cell-based; conditions: dose 10.0 µg/ml
[15] = target: Proprotein convertase subtilisin/kexin type 9 (Homo sapiens) (UniProt Q8NBP7); experiment: Inhibition of PCSK9 transcriptional activity in human HepG2 cells transfected with luciferase reporter plasmid containing truncated D5 (-392 to -1 base pairs) human PCSK9 promoter region assessed as decrease in luciferase activity incubated for 24 hrs by Luciferase assay; format: cell-based
Mus musculus [16] = experiment: In vivo inhibition of PCSK9 in high-fat diet fed ApoE knockout C57BL/6 mouse assessed as decrease in PCSK9 expression in liver at 30 mg/kg, IG for 8 weeks by Western blot analysis; format: functional, organism-based
Mus musculus [17] = experiment: Antiatherosclerotic activity in high-fat diet fed ApoE knockout C57BL/6 mouse assessed as decrease in serum triglyceride level at 30 mg/kg, IG for 8 weeks by lipid profiling assay; format: functional, organism-based
[18] = target: Proprotein convertase subtilisin/kexin type 9 (Homo sapiens) (UniProt Q8NBP7); experiment: Inhibition of PCSK9 in human HepG2 cells assessed as fold increase in LDL-cholesterol cellular uptake by measuring DiI fluorescence at 25 uM incubated for 24 hrs by Dil-LDL staining based flow cytometry analysis relative to control; format: cell-based
[19] = target: Proprotein convertase subtilisin/kexin type 9 (Homo sapiens) (UniProt Q8NBP7); experiment: Inhibition of PCSK9 transcriptional activity in human HepG2 cells transfected with luciferase reporter plasmid containing truncated D1 (-1711 to -1 base pairs) human PCSK9 promoter region assessed as decrease in luciferase activity incubated for 24 hrs by Luciferase assay; format: cell-based
[20] = target: Proprotein convertase subtilisin/kexin type 9 (Homo sapiens) (UniProt Q8NBP7); experiment: Inhibition of PCSK9 transcriptional activity in human HepG2 cells transfected with luciferase reporter plasmid containing truncated D4 (-440 to -1 base pairs) human PCSK9 promoter region assessed as decrease in luciferase activity incubated for 24 hrs by Luciferase assay; format: cell-based
[21] = target: Proprotein convertase subtilisin/kexin type 9 (Homo sapiens) (UniProt Q8NBP7); experiment: Inhibition of PCSK9 in human HepG2 cells assessed as increase in LDLR protein expression level at 2.5 to 25 uM incubated for 24 hrs by Western blot analysis; format: cell-based; conditions: dose 2.5-25 µM
[22] = Acute toxicity in C57BL/6 mouse assessed as body weight change upto 1000 mg/kg, IG and measured every day for 1 week; format: organism-based; conditions: in vivo, po, 168 h, time 1 weeks
Mus musculus [23] = experiment: Antiatherosclerotic activity in high-fat diet fed ApoE knockout C57BL/6 mouse assessed as decrease in VLDL fraction cholesterol level at 30 mg/kg, IG for 8 weeks by FPLC analysis; format: functional, organism-based
[24] = Acute toxicity in C57BL/6 mouse assessed as lethality upto 1000 mg/kg, IG and measured every day for 1 week; format: organism-based; conditions: in vivo, po, time 1 weeks
[25] = target: Proprotein convertase subtilisin/kexin type 9 (Homo sapiens) (UniProt Q8NBP7); experiment: Inhibition of PCSK9 transcriptional activity in human HepG2 cells transfected with luciferase reporter plasmid containing truncated D6 (-351 to -1 base pairs) human PCSK9 promoter region assessed as decrease in luciferase activity incubated for 24 hrs by Luciferase assay; format: cell-based
Mus musculus [26] = experiment: In vivo inhibition of PCSK9 in high-fat diet fed ApoE knockout C57BL/6 mouse assessed as decrease in PCSK9 expression in serum at 30 mg/kg, IG for 8 weeks by ELISA; format: functional, organism-based
[27] = target: Proprotein convertase subtilisin/kexin type 9 (Homo sapiens) (UniProt Q8NBP7); experiment: Inhibition of PCSK9 transcriptional activity in human HepG2 cells transfected with luciferase reporter plasmid containing truncated D2 (-1214 to -1 base pairs) human PCSK9 promoter region assessed as decrease in luciferase activity incubated for 24 hrs by Luciferase assay; format: cell-based

COCCNc1nc2c(c(=O)n(C)c(=O)n2C)n1Cc1cccc(OC)c1
1.7: fold change (FC) [18]
active: Activity (Mus musculus [2]) | Activity (Mus musculus [3]) | Activity (Mus musculus [4]) | Activity (Mus musculus [5]) | inhibition [6] Dose-Dependent Effect | inhibition [7] | inhibition [9] Dose-Dependent Effect | Activity (Mus musculus [13]) | inhibition [15] | inhibition (Mus musculus [16]) | Activity (Mus musculus [17]) | inhibition [19] | inhibition [20] | inhibition [21] Dose-Dependent Effect | Activity (Mus musculus [23]) | inhibition (Mus musculus [26]) | inhibition [27]
85.7%: inhibition [14]
inactive: inhibition [12] | inhibition [25]
> 31.3: selectivity ratio [1]
> 1000 mg/kg: LD50 at 168 h [24]
> 200 µM: CC50 at 24 h [11]
Non-Toxic: Activity [8] | Activity [10] | Activity [22]
